Test results reported in patent US10251944B2, “Cancer vaccines” (Pfizer Inc., priority 2016, dated 2019).
“And” between values parts separate entries of the source, which are not always exact repeats. Equal values may be shown once.

Tested on: TUBO tumor cells
Assay: Subcutaneous TUBO tumor growth in BALB-neuT mice
Type: in vivo
Design: key to Subcutaneous tumor volumes: tumor volume in mm3
Settings: for Subcutaneous tumor volumes: BALB-neuT mice, individual animals, with control vaccine and isotype control monoclonal antibody, listed as IDO1 inhibitor, in mm³
Method: BALB-neuT mice were implanted on study day 0 with TUBO tumor cells by subcutaneous injection. Mice were dosed with 200 mg/Kg of 3-(5-fluoro-1H-indol-3-yl)pyrrolidine-2,5-dione (IDO1 inhibitor) or vehicle twice daily from study day 7 using oral gavage. Comparator groups were sham dosed with vehicle from study day 7 onwards. Appropriated mice were immunized on study day 10 with 1e10 Viral Particles of an adenovirus vector engineered to express rat HER2 (rHER2) (rHER2 vaccine) or vector lacking the rHER2 transgene (control vaccine), by intramuscular injection. Subsequently, 250 ug of an anti-CTLA4 antibody (murine monoclonal antibody to CTLA-4, clone 9D9) or an IgG2 isotype control monoclonal antibody was injected subcutaneously in close proximity to lymph nodes draining the site of adenovirus vector injection. Every two weeks thereafter, mice were immunized with 100 ug of a DNA plasmid encoding rHER2 (rHER2 vaccine) or a DNA plasmid lacking the rHER2 transgene (control vaccine) by electroporation. Subsequent to the DNA plasmid administration, 250 ug of the anti-CTLA4 antibody was injected subcutaneously in close proximity to lymph nodes draining the site of DNA plasmid injection. To track tumor progression, subcutaneous tumor volumes were measured twice a week throughout the study. Animals with subcutaneous tumor volumes that reached 2000 mm3 or displaying irreversible signs of disease were euthanized.

Structure (SMILES): O=C1CC(c2c[nH]c3ccc(F)cc23)C(=O)N1 (stereo not drawn) [001 inhibitor, 3-(5-fluoro-1H-indol-3-yl)pyrrolidine-2,5-dione]
- tumor growth rates (subcutaneous tumor volumes), in words (BALB-neuT mice with TUBO tumors, IDO1 inhibitor 200 mg/Kg twice daily oral, anti-CTLA4 250 ug s.c., rHER2 adenovirus then DNA): No effect on tumor growth rates
- Subcutaneous tumor volumes (Study Day 18): 87.17 and 43.33 and 77.07 and 67.44 and 136.82 and 73.84 and 62.25 and 84.25 and 115.90 and 47.77 and 40.28 and 81.38 and 130.43
- Subcutaneous tumor volumes (Study Day 21): 91.03 and 64.93 and 113.76 and 113.10 and 163.91 and 75.81 and 78.22 and 89.04 and 182.85 and 58.23 and 54.88 and 135.90 and 127.97
- Subcutaneous tumor volumes (Study Day 24): 161.46 and 92.35 and 169.45 and 127.09 and 198.49 and 100.08 and 101.79 and 140.26 and 284.27 and 88.35 and 55.22 and 110.30 and 155.81
- Subcutaneous tumor volumes (Study Day 27): 163.11 and 110.42 and 171.37 and 129.44 and 240.05 and 125.82 and 123.19 and 186.49 and 361.01 and 112.48 and 80.13 and 147.33 and 241.15
- Subcutaneous tumor volumes (Study Day 32): 252.04 and 173.28 and 301.94 and 202.21 and 337.79 and 251.57 and 194.14 and 275.98 and 541.91 and 153.38 and 110.90 and 184.76 and 321.37
- Subcutaneous tumor volumes (Study Day 35): 324.53 and 260.28 and 306.58 and 377.96 and 401.70 and 262.56 and 246.60 and 364.82 and 598.92 and 209.97 and 141.15 and 244.33 and 521.30
- Subcutaneous tumor volumes (Study Day 39): 414.72 and 343.13 and 512.15 and 430.30 and 596.09 and 434.13 and 389.39 and 471.60 and 671.98 and 338.06 and 192.15 and 328.32 and 572.30
- Subcutaneous tumor volumes (Study Day 42): 603.00 and 408.33 and 574.86 and 574.25 and 680.54 and 551.64 and 463.99 and 601.50 and 820.44
